Experimental data published in patent US7622551B2, “Leukocyte stimulating peptides” (POSCO, priority 2004, dated 2009).
“Also recorded” adds a separate entry of the source. Where no end group is shown, it is not given here.

Tests used:
[1] = test system: differentiated HL60 cells; assay: [Ca2+]i increase in fura-2 loaded dHL60 cells; format: cell-based, human; details: for [Ca^2+]i: differentiated HL60 cells, fura-2, 1 μM of peptide
Procedure: (§1) U937 (human histiocytic lymphoma cells), HL60 (human promyelocytic leukemia cells), Raw 264.7 (mouse macrophage), Jurkat (human acute T cell leukemia), PC12 (rat adrenal pheochromocytoma cells), 3Y1 (Rat embryonic fibroblasts), 3T3L1 (preadipocytes), and NCI-H292 (human mucoepidermoid pulmonary carcinoma cells) were obtained from the American Type Culture Collection (Rockville, Md.) and maintained as recommended. FPR- or FPRL1 expressing RBL-2H3 cells were cultured as described previously (He et al. J. Immunol. 2000. 165: 4598-4605). Cells were maintained at about 1×10^6 cells/ml under standard incubator conditions (humidified atmosphere, 95% air, 5% CO2, at 37° C.). HL60 cells were induced to differentiate into the granulocyte phenotype by adding dimethylsulfoxide (DMSO) (final concentration 1.25%, v/v) for 4 days to the culture medium, as described previously (Itoh et al. Blood. 1998. 92: 1432-1441).
(§2) The level of [Ca^2+]i was determined using Grynkiewicz's method using fura-2/AM (Grynkiewicz et al. J. Biol. Chem. 1985. 260: 3440-3550). Briefly, prepared cells were incubated with 3 μM of fura-2/AM at 37° C. for 50 min in serum-free RPMI 1640 medium under continuous stirring. 2×10^6 cells were aliquoted for each assay in Ca^2+ free Locke's solution (154 mM NaCl, 5.6 mM KCl, 1.2 mM MgCl2, 5 mM HEPES, pH 7.3, 10 mM glucose, and 0.2 mM EGTA). Fluorescence changes were measured at the dual excitation wavelength of 340 nm and 380 nm, and the calculated fluorescence ratio was translated into [Ca^2+]i.

[2] = test system: undifferentiated HL60 cells; assay: [Ca2+]i increase in undifferentiated HL60 cells; format: cell-based, human; details: for [Ca^2+]i increase in undifferentiated HL60 cells: peptides 10 μM (FIG. 8)
Procedure: as §1, §2

[3] = target: T1, FPR (Homo sapiens, UniProt P21462); assay: [Ca2+]i increase in FPR-expressing RBL-2H3 cells; format: cell-based; details: data not shown
T1 construct: expressed in transfected cells; host or cells: RBL-2H3
T1 sequence (P21462 1-350): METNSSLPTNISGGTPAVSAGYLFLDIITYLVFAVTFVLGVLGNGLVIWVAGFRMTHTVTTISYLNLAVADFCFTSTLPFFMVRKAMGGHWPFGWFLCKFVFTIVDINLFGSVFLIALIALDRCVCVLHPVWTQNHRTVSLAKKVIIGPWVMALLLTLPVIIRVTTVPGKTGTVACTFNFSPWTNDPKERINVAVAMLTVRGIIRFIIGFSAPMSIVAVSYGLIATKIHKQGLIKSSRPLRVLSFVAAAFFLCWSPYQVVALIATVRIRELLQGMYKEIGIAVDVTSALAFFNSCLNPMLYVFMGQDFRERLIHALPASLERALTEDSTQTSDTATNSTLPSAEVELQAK
Procedure: as §1, §2

[4] = test system: ERK; assay: ERK phosphorylation in dHL60 cells (anti-phospho-ERK immunoblot); format: cell-based, human; details: for Phosphorylation level of ERK: dHL60 cells (FIG. 9); for Effect of GF109203X (PKC) on peptide-induced ERK phosphorylation / Effect of LY294002 (PI3K) on peptide-induced ERK phosphorylation / Effect of PD98059 (MEK) on peptide-induced ERK phosphorylation / Time of maximal ERK activation after stimulation: dHL60 cells; for Effect of GF109203X (PKC) on peptide-induced ERK phosphorylation: GF109203X (5 μM) 15 minutes; for Effect of GF109203X (PKC) on peptide-induced ERK phosphorylation / Effect of LY294002 (PI3K) on peptide-induced ERK phosphorylation / Effect of PD98059 (MEK) on peptide-induced ERK phosphorylation: 1 μM peptide 5 minutes; for Effect of LY294002 (PI3K) on peptide-induced ERK phosphorylation: LY294002 (50 μM) 15 minutes; for Effect of PD98059 (MEK) on peptide-induced ERK phosphorylation: PD98059 (50 μM) 60 minutes; for Time of maximal ERK activation after stimulation: data not shown
Procedure: Each sample (30 μg of protein) was subjected to 8% SDS-PAGE, and phosphorylated ERK was quantified by immunoblot analysis with anti-phospho-ERK antibody. The results shown are from a single experiment representative of at least three independent experiments.
Extracellular signal regulated protein kinase (ERK) is a well-known intracellular enzyme that mediates diverse cellular responses (Sugden et al. Cell Signal. 1997. 9: 337-351). […] To compare the intracellular signaling involving these 4 peptides, dHL60 cells were pretreated either with LY294002 (50 μM), GF109203X (5 μM), or PD98059 (50 μM) or left untreated as a control. After being incubated for the indicated periods (15 minutes for LY294002 and GF109203X, 60 minutes for PD98059), the cells were stimulated with 1 μM of each peptide for 5 minutes.

[5] = test system: differentiated HL60 cells; assay: Arachidonic acid (AA) release in [3H]AA-labeled dHL60 cells; format: cell-based, human; details: for AA release stimulating activity (in words) / Effect of cPLA2-specific inhibitors AACOCF3 and MAFP on peptide-induced AA release: dHL60 cells; for AA release stimulating activity (in words): 10 μM; for Effect of cPLA2-specific inhibitors AACOCF3 and MAFP on peptide-induced AA release: inhibitor pretreatment 15 min, 1 μM peptide; for Folds of increase (% of total), arachidonic acid release: differentiated HL60 cells, 10 μM of peptide
Procedure: as §1
For the initial screening of the PS-SPCLs, we measured the AA release stimulating activity of each peptide pool. Cultured dHL60 cells (10^7 cells/ml) were pre-labeled with 0.5 μCi/ml of (^3H)-AA in RPMI 1640 medium containing 10% FBS for 90 min at 37° C. in a humidified incubator supplied with 95% air and 5% CO2, as described previously (Bae et al. J. Immunol. 2000. 164: 4089-4096). The labeled cells were then washed twice with serum-free RPMI 1640 and incubated in RPMI 1640 medium containing 0.1% fatty acid-free BSA for 15 min at 37° C. After discarding the medium, the cells were stimulated with various concentrations of peptide for the indicated times. Radioactivity in the medium and of collected cells was determined with a liquid scintillation counter. When investigating the effects of inhibitors, cells were preincubated with the indicated concentrations of each inhibitor or vehicle for 15 min prior to stimulation.

[6] = test system: human neutrophils; assay: Superoxide generation (cytochrome c reduction) in human neutrophils; format: cell-based; details: for Superoxide production: 1 μM of peptide, cytochrome c reduction
Procedure: Peripheral blood leukocyte concentrates were donated by the Ulsan Red Cross Blood Center (Ulsan, Korea). PBMCs were separated on a Histopaque-1077 gradient. After two washings with HBSS without Ca^2+ and Mg^2+, the PBMCs were suspended in 10% FBS containing RPMI and incubated for 60 min at 37° C. to let the monocytes attach to the culture dish. Cells were washed 5 times with warmed RPMI medium to remove lymphocytes, and then the attached monocytes were collected, as described previously (Bae et al. J. Leukoc. Biol. 1999. 65: 241-248). Human neutrophils were isolated according to standard procedures; i.e., dextran sedimentation, hypotonic lysis of erythrocytes, and using a medium lymphocyte separation gradient, as described previously (Seo et al. J. Immunol. 1997. 158: 1895-1901). Isolated human leukocytes were then used promptly.
We determined superoxide anion generation by measuring cytochrome c reduction using a microtiter 96 well plate ELISA reader (Bio-Tekinstruments, EL312e, Winooski, Vt.) as described previously (Bae et al. Blood. 2001. 97: 2854-2862). Human neutrophils (1×10^6 cells/100 μl of RPMI 1640 medium per well of a 96-well plate) were preincubated with 50 μM of cytochrome c at 37° C. for 1 min and then incubated with the indicated peptide concentrations. Superoxide generation was determined from change in light absorption at 550 nm over 5 minutes at 1 min intervals.

RKYHVM-NH2 [Peptide P14]
[Ca^2+]i [1]: 85 ± 9.5 nM | [Ca^2+]i increase in undifferentiated HL60 cells [2]: did not affect | [Ca^2+]i in FPR-expressing RBL-2H3 cells / ligand for FPR [3]: not for FPR | Phosphorylation level of ERK [4]: dramatic increase | Effect of GF109203X (PKC) on peptide-induced ERK phosphorylation [4]: blocked | Effect of LY294002 (PI3K) on peptide-induced ERK phosphorylation [4]: blocked | Effect of PD98059 (MEK) on peptide-induced ERK phosphorylation [4]: blocked | Time of maximal ERK activation after stimulation [4]: 5 min | AA release stimulating activity (in words) [5]: most potent | Effect of cPLA2-specific inhibitors AACOCF3 and MAFP on peptide-induced AA release [5]: blocked | Folds of increase (% of total), arachidonic acid release [5]: 2.23 ± 0.403 folds | Superoxide generation (in words) [6]: stimulate superoxide generation in a concentration-dependent manner | Superoxide production [6]: 9.3 ± 1.42 nmole/10^6 cells

MKYYKM-NH2 [Peptide P21]
[Ca^2+]i [1]: 122 ± 15.7 nM | [Ca^2+]i increase in undifferentiated HL60 cells [2]: did not affect | [Ca^2+]i in FPR-expressing RBL-2H3 cells / ligand for FPR [3]: not for FPR | Phosphorylation level of ERK [4]: dramatic increase | Effect of LY294002 (PI3K) on peptide-induced ERK phosphorylation [4]: PI3K and MEK-dependency | Effect of PD98059 (MEK) on peptide-induced ERK phosphorylation [4]: PI3K and MEK-dependency | Time of maximal ERK activation after stimulation [4]: 5 min | AA release stimulating activity (in words) [5]: most potent | Effect of cPLA2-specific inhibitors AACOCF3 and MAFP on peptide-induced AA release [5]: blocked | Folds of increase (% of total), arachidonic acid release [5]: 2.86 ± 0.426 folds | Superoxide generation (in words) [6]: stimulate superoxide generation in a concentration-dependent manner | Superoxide production [6]: 12.7 ± 1.76 nmole/10^6 cells

MKYYYM-NH2 [Peptide P24]
Concentration of maximal activity, [Ca^2+]i increase ([1]; dHL60 cells, data not shown): approximately 3 μM | [Ca^2+]i [1]: 165 ± 23.4 nM | [Ca^2+]i increase in undifferentiated HL60 cells [2]: dramatically induced | Effect of PTX on peptide-stimulated calcium signaling ([2]; undifferentiated HL60 cells, data not shown): partially inhibited | [Ca^2+]i in FPR-expressing RBL-2H3 cells / ligand for FPR [3]: not for FPR | Phosphorylation level of ERK [4]: dramatic increase | Effect of GF109203X (PKC) on peptide-induced ERK phosphorylation [4]: not by GF109203X | Effect of LY294002 (PI3K) on peptide-induced ERK phosphorylation [4]: partially blocked | Time of maximal ERK activation after stimulation [4]: 5 min | AA release stimulating activity (in words) [5]: most potent | Effect of cPLA2-specific inhibitors AACOCF3 and MAFP on peptide-induced AA release [5]: blocked | Folds of increase (% of total), arachidonic acid release [5]: 2.93 ± 0.323 folds | Superoxide generation (in words) [6]: stimulate superoxide generation in a concentration-dependent manner; also recorded: most potent | Superoxide production [6]: 34.2 ± 0.48 nmole/10^6 cells
